The text below walks through data of ChEMBL document CHEMBL3608289, “Miltirone Is a Dual Inhibitor of P-Glycoprotein and Cell Growth in Doxorubicin-Resistant HepG2 Cells” (J Nat Prod, 2015).

Calls of active or inactive are those of the source. No cut-off for these calls is given here.

The subject of data set [1] is HepG2. The data set can be described thus: Induction of apoptosis in human HepG2 cells assessed as increase in PARP cleavage at 25 uM after 24 hrs by Western blotting. The class given is functional, cell-based. In general terms: A western blot detects proteins with antibodies after separation by electrophoresis.
In data set [2] the test system is HepG2. The data set is described as follows: Induction of apoptosis in human doxorubicin-resistant HepG2 cells expressing p-gp assessed as increase in PARP cleavage at 25 uM after 24 hrs by Western blotting. It counts as functional, cell-based.
For data set [3], the system named is HepG2. The data set is described as follows: Induction of apoptosis in human HepG2 cells assessed as activation of caspase-3/8/9 at 25 uM after 24 hrs by Western blotting. It counts as functional, cell-based.
Data set [4] concerns HepG2. The data set can be described thus: Induction of apoptosis in human doxorubicin-resistant HepG2 cells expressing p-gp assessed as activation of caspase-3/8/9 at 25 uM after 24 hrs by Western blotting. The class given is functional, cell-based.
The subject of data set [5] is HepG2. The data set is described as follows: Increase of SAPK/JNK phosphorylation in human HepG2 cells at 25 uM by Western blot analysis. The class given is cell-based.
Data set [6] has as its system HepG2. The data set can be described thus: Increase of SAPK/JNK phosphorylation in human doxorubicin-resistant HepG2 cells expressing p-gp at 25 uM by Western blot analysis. The class given is cell-based.
For data set [7], the target named is T1, MAP kinase p38 (Homo sapiens) (UniProt O15264+Q15759+Q16539+P53778). The data set is described as follows: Inhibition of p38 MAPK phosphorylation in human HepG2 cells at 25 uM by Western blot analysis. The class given is cell-based.
Data set [8] deals with T1, MAP kinase p38 (Homo sapiens). The data set can be described thus: Inhibition of p38 MAPK phosphorylation in human doxorubicin-resistant HepG2 cells expressing p-gp at 25 uM by Western blot analysis. It counts as cell-based.
For data set [9], the target named is T2, Mitogen-activated protein kinase; ERK1/ERK2 (Homo sapiens) (UniProt P27361+P28482). The data set is described as follows: Inhibition of ERK1/2 phosphorylation in human HepG2 cells at 25 uM by Western blot analysis. It counts as cell-based.
T2 sequence (P27361 whole entry, looked up): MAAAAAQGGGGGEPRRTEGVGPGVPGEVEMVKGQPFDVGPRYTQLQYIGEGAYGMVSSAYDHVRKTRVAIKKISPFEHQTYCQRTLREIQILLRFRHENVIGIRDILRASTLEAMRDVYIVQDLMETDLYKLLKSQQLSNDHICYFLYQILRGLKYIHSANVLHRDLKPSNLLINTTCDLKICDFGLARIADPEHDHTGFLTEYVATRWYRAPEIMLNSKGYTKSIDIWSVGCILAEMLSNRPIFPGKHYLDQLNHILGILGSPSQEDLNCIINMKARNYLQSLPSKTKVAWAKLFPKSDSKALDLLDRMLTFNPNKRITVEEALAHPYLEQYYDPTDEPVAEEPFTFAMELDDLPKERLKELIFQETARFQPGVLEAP
T2 sequence (P28482 whole entry, looked up): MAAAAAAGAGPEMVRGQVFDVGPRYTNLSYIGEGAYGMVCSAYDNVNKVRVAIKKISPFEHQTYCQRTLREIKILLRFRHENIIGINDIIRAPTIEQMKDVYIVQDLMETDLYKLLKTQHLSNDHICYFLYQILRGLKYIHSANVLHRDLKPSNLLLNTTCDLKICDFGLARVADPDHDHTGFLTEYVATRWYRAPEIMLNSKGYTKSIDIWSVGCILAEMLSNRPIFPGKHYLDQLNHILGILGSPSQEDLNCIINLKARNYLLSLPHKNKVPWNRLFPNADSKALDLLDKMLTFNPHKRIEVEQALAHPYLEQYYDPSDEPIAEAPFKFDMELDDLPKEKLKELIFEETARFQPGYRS
Data set [10] concerns the target T2, Mitogen-activated protein kinase; ERK1/ERK2 (Homo sapiens). The data set can be described thus: Inhibition of ERK1/2 phosphorylation in human doxorubicin-resistant HepG2 cells expressing p-gp at 25 uM by Western blot analysis. It counts as cell-based.
The test system of data set [11] is HepG2. The data set can be described thus: Effect on nonphosphorylated ERK1/ERK2 level in human HepG2 cells at 25 uM by Western blot analysis. The class given is ADME, cell-based. The settings on record: hepg2, 25 µM.
For data set [12], the system named is HepG2. The data set can be described thus: Effect on nonphosphorylated ERK1/ERK2 level in human doxorubicin-resistant HepG2 cells expressing p-gp at 25 uM by Western blot analysis. It counts as ADME, cell-based. Particulars: hepg2, 25 µM.
For data set [13], the system named is HepG2. The data set is described as follows: Effect on nonphosphorylated p38 MAPK level in human HepG2 cells at 25 uM by Western blot analysis. The settings on record: hepg2, 25 µM. The class given is ADME, cell-based.
Data set [14] deals with HepG2. The data set can be described thus: Effect on nonphosphorylated p38 MAPK level in human doxorubicin-resistant HepG2 cells expressing p-gp at 25 uM by Western blot analysis. It counts as ADME, cell-based. Particulars: hepg2, 25 µM.
In data set [15] the test system is HepG2. The data set is described as follows: Effect on nonphosphorylated SAPK/JNK level in human HepG2 cells at 25 uM by Western blot analysis. The class given is ADME, cell-based. The settings on record: hepg2, 25 µM.
The test system of data set [16] is HepG2. The data set is described as follows: Effect on nonphosphorylated SAPK/JNK level in human doxorubicin-resistant HepG2 cells expressing p-gp at 25 uM by Western blot analysis. The class given is ADME, cell-based. Particulars: hepg2, 25 µM.

Regarding `Cc1cccc2c3c(ccc12)C1=C(C(=O)C3=O)[C@@H](C)CO1` [DIHYDROTANSHINONE I], the result in the data set on HepG2 [1], with HepG2 [2], in the data set on HepG2 [3], in the data set on HepG2 [4] and in the data set with HepG2 [5] was Active. In addition, in the data set with HepG2 [6], the outcome was inactive. Also, the inhibition result in data set [7], in data set [8] and in data set [10] was “Active” each time. In [9], the inhibition result was “inactive”. Also, the Activity result with HepG2 [11], with HepG2 [12], with HepG2 [13], in the data set with HepG2 [14], with HepG2 [15] and with HepG2 [16] was “Non-toxic” throughout.
